Results reported in US10667516B2, “Use of 3-isoxazolidinones as selective herbicides in grass and Brassica crops” (FMC Corporation, priority 2011, dated 2020).

Tested on: chickweed
Test: Volatility evaluation (phytotoxic injury of chickweed by volatilization from treated soil)
Conditions: formulations containing the non-encapsulated compound
Source text: Chickweed is very sensitive to clomazone and is a good indicator for bleaching compound volatility. […] These formulations are the reference standards against which the experimental formulations are compared. Four inch plastic pots were fitted with a basket style coffee filter, cut to size, placed in the bottom of each pot to cover the drainage holes and to stop soil from exiting the bottom of the pot. Each pot was filled with sandy loam soil that was sieved using a #10 mesh sieve to remove any large soil particles and debris. Filled soil pots were lightly watered prior to treatment application. The test solutions were applied to the soil surface using the DeVries Generation III sprayer, two replicates per test solution, at a rate of 0.25 g ai/ha. Each replicate test was set-up by placing an empty four inch plastic pot onto a greenhouse bench. Pots containing mature chickweed, about 2 inches in height, were placed around the empty pot in an eight spoke pattern. […] The untreated chickweed plants were evaluated for phytotoxic injury at 14 days after treatment. Volatility was evaluated by measuring the distance (cm) from the center of the treated soil pot to the distal point where bleaching effects were observed on each spoke. All eight spokes for each treatment were evaluated. The amount of volatility was determined by calculating the total square centimeters of phytotoxic injury per treatment. […]

Row | SMILES | control of volatility compared to the non-encapsulated clomazone formulation
1 | CC1(C)CON(Cc2cc(Cl)ccc2Cl)C1=O [2,5-Cl, 2-(2,5-dichlorophenyl)methyl-4,4-dimethyl-3-isoxazolidone] | significant control of volatility
2 | CC1(C)CON(Cc2ccc(Cl)cc2Cl)C1=O [2,4-Cl, 2-(2,4-dichlorophenyl)methyl-4,4-dimethyl-3-isoxazolidone] | significant control of volatility
